Measurements published in ChEMBL document CHEMBL1135576, “Synthesis and biological characterization of L-N(6)-(1-iminoethyl)lysine 5-tetrazole-amide, a prodrug of a selective iNOS inhibitor” (J Med Chem, 2002).
pIC50: −log10 of the molar value.

Columns and labels:
[1] = molecular target: T1, Nitric oxide synthase, inducible (Homo sapiens, UniProt P35228); test: The concentration required for inhibition of Human inducible nitric oxide synthase (iNOS) isoform
Nitric oxide synthase 1 = Nitric oxide synthase 1 (Homo sapiens, UniProt P29475); test: The concentration required for inhibition of Human Neuronal nitric oxide synthase (nNOS)
[2] = molecular target: T1, Nitric oxide synthase, inducible; test: The concentration required for inhibition of Human inducible nitric oxide synthase (iNOS) isoform, expressed as IC50.

T1 sequence (P35228 whole entry, canonical isoform): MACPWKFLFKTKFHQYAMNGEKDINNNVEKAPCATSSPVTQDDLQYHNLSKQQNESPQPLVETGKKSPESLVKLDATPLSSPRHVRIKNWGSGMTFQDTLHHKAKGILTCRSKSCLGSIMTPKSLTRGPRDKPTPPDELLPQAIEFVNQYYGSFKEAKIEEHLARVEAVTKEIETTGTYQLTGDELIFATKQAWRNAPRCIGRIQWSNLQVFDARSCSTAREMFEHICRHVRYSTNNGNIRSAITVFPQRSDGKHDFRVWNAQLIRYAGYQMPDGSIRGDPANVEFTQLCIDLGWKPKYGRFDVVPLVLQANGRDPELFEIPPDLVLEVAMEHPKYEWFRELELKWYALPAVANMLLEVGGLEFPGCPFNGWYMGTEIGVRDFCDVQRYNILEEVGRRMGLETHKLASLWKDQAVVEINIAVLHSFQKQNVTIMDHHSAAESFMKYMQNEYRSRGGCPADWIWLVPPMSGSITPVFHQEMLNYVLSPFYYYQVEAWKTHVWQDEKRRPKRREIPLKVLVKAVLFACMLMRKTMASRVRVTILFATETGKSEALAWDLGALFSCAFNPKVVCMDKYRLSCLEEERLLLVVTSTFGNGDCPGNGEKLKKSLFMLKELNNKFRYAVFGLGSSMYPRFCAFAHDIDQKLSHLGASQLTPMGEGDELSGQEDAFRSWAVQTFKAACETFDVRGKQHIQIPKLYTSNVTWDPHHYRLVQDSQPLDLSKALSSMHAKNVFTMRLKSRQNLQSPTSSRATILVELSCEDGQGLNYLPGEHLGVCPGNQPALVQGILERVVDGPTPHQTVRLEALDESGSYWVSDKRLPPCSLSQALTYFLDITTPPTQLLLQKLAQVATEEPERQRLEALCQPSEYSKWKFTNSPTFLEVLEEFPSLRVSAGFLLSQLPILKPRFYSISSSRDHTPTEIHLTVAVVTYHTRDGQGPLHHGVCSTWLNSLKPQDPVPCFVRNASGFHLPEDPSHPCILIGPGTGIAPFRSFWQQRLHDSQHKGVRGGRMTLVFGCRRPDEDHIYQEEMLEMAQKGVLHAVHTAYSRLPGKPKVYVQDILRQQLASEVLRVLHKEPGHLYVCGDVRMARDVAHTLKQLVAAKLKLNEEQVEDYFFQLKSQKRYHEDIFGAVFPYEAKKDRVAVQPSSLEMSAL
Nitric oxide synthase 1, sequence (P29475 whole entry, canonical isoform): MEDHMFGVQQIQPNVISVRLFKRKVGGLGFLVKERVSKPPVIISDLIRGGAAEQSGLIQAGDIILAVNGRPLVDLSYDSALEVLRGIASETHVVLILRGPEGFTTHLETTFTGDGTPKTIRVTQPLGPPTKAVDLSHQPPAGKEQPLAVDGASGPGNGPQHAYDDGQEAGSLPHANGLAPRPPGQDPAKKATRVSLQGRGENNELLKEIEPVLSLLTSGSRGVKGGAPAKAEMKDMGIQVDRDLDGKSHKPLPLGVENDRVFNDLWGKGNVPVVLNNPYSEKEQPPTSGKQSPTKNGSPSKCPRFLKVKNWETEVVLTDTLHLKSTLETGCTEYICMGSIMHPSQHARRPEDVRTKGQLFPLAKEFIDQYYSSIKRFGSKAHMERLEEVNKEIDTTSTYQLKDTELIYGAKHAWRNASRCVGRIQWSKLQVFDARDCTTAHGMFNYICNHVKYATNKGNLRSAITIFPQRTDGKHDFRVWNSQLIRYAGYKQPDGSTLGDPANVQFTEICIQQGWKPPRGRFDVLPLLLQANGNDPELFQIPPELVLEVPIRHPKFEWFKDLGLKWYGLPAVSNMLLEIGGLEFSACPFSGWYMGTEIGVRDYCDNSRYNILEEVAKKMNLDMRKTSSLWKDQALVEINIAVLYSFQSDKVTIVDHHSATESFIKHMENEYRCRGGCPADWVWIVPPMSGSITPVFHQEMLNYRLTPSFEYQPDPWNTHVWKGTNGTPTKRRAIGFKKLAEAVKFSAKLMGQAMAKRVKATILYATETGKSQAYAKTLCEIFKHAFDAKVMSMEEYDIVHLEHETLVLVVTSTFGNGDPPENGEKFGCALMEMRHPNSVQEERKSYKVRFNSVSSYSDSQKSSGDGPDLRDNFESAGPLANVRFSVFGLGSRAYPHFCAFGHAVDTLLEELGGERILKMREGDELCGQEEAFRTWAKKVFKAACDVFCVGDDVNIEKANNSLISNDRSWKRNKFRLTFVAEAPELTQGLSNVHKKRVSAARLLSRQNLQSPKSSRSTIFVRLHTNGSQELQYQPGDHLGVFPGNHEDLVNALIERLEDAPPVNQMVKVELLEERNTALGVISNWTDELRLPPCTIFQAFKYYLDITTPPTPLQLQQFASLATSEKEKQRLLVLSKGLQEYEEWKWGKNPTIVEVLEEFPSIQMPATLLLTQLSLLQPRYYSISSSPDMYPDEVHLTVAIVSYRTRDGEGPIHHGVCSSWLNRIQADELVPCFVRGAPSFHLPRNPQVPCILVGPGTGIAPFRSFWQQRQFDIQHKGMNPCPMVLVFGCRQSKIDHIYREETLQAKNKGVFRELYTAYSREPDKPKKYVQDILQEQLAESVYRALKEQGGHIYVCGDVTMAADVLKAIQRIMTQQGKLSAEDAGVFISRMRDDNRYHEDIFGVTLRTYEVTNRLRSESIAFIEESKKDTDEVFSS

Row | pIC50 [1] | pIC50 (Nitric oxide synthase 1) | pIC50 [2] | Structure (SMILES)
1 | 5.23 | 4.46 | – | CC(=N)NCCCC[C@H](N)C(=O)O
2 | – | < 2.73 | < 2.73 | CC(=N)NCCCC[C@H](N)C(=O)Nc1nnn[nH]1
